Test results taken from patent publication US20180049444A1, “XENORHABDUS SZENTIRMAII METABOLITES, TRANS-CINNAMIC ACID, AND ANALOGS THEREOF AS ENHANCERS OF FUNGICIDAL ACTIVITY” (priority 2016, published 2018).

Key:
[1] = test system: Monilinia fructicola (brown rot); test: Synergy assessment of TCA and trans-Cinnamaldehyde with commercial fungicides, growth area on PDA after 4 days; format: cell-based; settings: FIG. 11
From the text: Following the procedures above and those in Hazir et al (2017b, J. Invertebrate Path. 145: 1-8), synergy assessments were implemented to compare trans-Cinnamic acid to an exemplary analog, trans-Cinnamaldehyde. The target phytopathogen was Monilinia fructicola (brown rot). Treatment effects were compared by measuring vegetative growth of the phytopathogens in vitro when they were exposed to the fungicidal agents applied alone or in combination. Solutions of the fungicidal treatments were incorporated into potato dextrose agar (PDA) to achieve the desired concentrations, and autoclaved. Prior to autoclaving the PDA, the prescribed volume of distilled water was reduced to allow addition of the fungicide solutions. Controls consisted of PDA without any amendment or PDA with acetone only (the solvent used for TCA). Trans-Cinnamic acid and trans-Cinnamaldehyde were applied alone or with commercial fungicides […]® (extract of Reynoutria sachalinensis) or Serenade® (Bacillus subtilis). After 4 days the area of M. fructicola growth was determined. […] [table]

Venturia carpophila [2] = test: Suppression of in vitro vegetative growth (colony area) on agar amended with 10% supernatant or TCA; format: cell-based; settings: V. carpophila; FIG. 5; 7 days
From the text: (§1) Treatment effects were compared by measuring in vitro vegetative growth of the phytopathogens V. carpophila and V. effusa when exposed to the same bacterial exudates evaluated above in the germination study. Solutions of the fungicidal treatments were incorporated into PDA and autoclaved. Prior to autoclaving the PDA, the prescribed volume of distilled water was reduced to allow addition of treatment suspensions. Controls consisted of PDA without any amendment or PDA with acetone only (the solvent for TCA). The media were vortexed when cooled to 40-42° C. and poured to Petri dishes.
(§2) A 5 mm diameter mycelia plug from a fungal culture plate was transferred onto the center surface of each agar dish (Fang et al. 2011; Hazir et al. 2017a) and incubated at 25° C. Vegetative growth of the fungus was measured after 7 days. Growth was measured in two perpendicular directions to obtain the approximate area of the fungal mat.

Venturia effusa = test: as above; format: cell-based; settings: V. effusa; FIG. 4; 7 days
From the text: as §1, §2

Glomerella cingulata = test: as above; format: cell-based; settings: G. cingulata; FIG. 2; 7 days
Venturia carpophila [3] = test: Suppression of spore germination in potato dextrose broth with 10% bacterial supernatant or TCA; format: cell-based; settings: V. carpophila
Experimental: (§3) The spores of V. carpophila and V. effusa were used to determine the inhibitory effect of the bacterial supernatants on germination. Supernatants tested were from X. nematophila, X. cabanillasii, X. bovienii, X. szentirmaii, strain 17C+E, P. temperate, P. luminescens (VS) and P. luminescens (K-22). The conidia suspension (0.1 ml) of V. effusa or V. carpophila was added to 0.8 ml potato dextrose broth (PDB) in 2 ml eppendorf tubes containing 0.1 ml (10% v/v) bacterial supernatant. Controls were PDB alone and conidial suspension without supernatant. Because TCA derived from Photorhabdus spp. was identified as an active compound with significant antifungal activity (Bock et al. 2014), TCA was added (1.27 mg/ml) in all experiments for comparison as well. The stock solution of TCA (99% purity, Sigma, St. Louis, Mo.) was prepared with 12.7 g dissolved in 100 ml ethanol (96%). Each treatment was replicated three times, and the experiment was repeated once on a different date. The tubes were incubated at 25° C. for 48 hours and the first 100 conidia were counted under the microscope (400×) to determine percentage spore germination (which was used to determine treatment effects). […] An inhibition rate was determined according to the formula: 100×[(the average percentage of spores germinated in the control−the average percentage of spores germinated in the treatment)/the average percentage of spores germinated in the control] (Fang et al. 2011). Analysis of Variance (ANOVA) (SAS V9.3, SAS Institute Inc., Cary, N.C.) was also applied to the data for V. carpophila.

V. effusa = test: as above; format: cell-based, Venturia effusa
Experimental: as §3, with “Each treatment was replicated three times, and the experiment was repeated once on a different date.” left out, “(Fang et al. 2011). Analysis of Variance (ANOVA) (SAS V9.3, SAS Institute Inc., Cary, N.C.) was also applied to the data for V. carpophila.” left out

Monilinia fructicola = test: Suppression of in vitro vegetative growth (colony area) on agar amended with 10% supernatant or TCA; format: cell-based; settings: M. fructicola; FIG. 3; 7 days

Row | Structure (SMILES) | Interaction (level of M. fructicola suppression) when combined with commercial fungicides such as Regalia and Serenade [1] | suppression of vegetative growth compared among treatments (Venturia carpophila [2]) | suppression of vegetative growth compared among treatments (Venturia effusa) | suppression of vegetative growth compared among treatments (Glomerella cingulata) | percentage spore germination (Venturia carpophila [3]; 10% supernatant or TCA 1.27 mg/ml, 48 hours) [%] | level of suppression of spore germination compared among treatments (Venturia carpophila [3]; FIG. 1) | inhibition at 1270 µg/mL (Venturia carpophila [3]; Venturia carpophila, 10% v/v supernatant or TCA 1.27 mg/ml, 48 hours at 25° C., read-out: Inhibition rate of spore germination (%)) [%] | percentage spore germination compared among treatments (V. effusa) | inhibition at 1270 µg/mL (V. effusa; Venturia effusa, 10% v/v supernatant or TCA 1.27 mg/ml, 48 hours at 25° C., read-out: Inhibition rate of spore germination (%)) [%] | suppression of vegetative growth compared among treatments (Monilinia fructicola)
1 | O=C/C=C/c1ccccc1 [CA, trans-Cinnamaldehyde] | synergistic |  |  |  |  |  |  |  |  | 
2 | O=C(O)/C=C/c1ccccc1 [TCA, trans-Cinnamic acid] | synergistic | most suppression | highest suppression | most suppression | 8.66 | highest level of suppression | 87.7 | the least | 76.7 | greatest suppression
